{"source": "paper PMC8213057", "about": "“Targeting ALK2: An Open Science Approach to Developing Therapeutics for the Treatment of Diffuse Intrinsic Pontine Glioma” (Journal of Medicinal Chemistry, 2020)", "key": {"CDK19/cyclin C": {"molecular_target": "CDK19/cyclin C (Homo sapiens, UniProt Q9BWU1)", "sequence (Q9BWU1 whole entry)": "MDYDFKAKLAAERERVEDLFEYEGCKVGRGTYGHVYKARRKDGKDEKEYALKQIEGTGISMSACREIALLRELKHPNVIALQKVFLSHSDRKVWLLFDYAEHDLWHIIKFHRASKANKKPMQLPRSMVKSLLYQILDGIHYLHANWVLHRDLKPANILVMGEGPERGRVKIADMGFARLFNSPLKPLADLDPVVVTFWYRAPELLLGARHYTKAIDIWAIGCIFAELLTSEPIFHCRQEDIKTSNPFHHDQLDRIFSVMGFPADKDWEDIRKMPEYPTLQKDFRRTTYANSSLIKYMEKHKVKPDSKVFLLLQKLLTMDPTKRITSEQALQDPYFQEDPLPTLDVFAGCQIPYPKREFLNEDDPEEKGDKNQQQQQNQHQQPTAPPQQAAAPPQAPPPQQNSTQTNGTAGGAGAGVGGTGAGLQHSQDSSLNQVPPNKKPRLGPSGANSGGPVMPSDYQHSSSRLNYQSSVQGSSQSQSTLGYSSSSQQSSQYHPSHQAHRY", "sequence (P24863 whole entry partner)": "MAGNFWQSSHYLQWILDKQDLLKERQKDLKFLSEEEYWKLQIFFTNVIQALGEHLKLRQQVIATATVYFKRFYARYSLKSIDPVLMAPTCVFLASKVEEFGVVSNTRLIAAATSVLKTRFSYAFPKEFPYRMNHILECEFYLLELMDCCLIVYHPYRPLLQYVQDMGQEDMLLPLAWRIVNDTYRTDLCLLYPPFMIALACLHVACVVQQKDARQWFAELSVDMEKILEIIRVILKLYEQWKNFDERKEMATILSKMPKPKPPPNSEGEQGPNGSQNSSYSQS", "settings": "1 μM; Run 1, Run 2"}, "CDK7/cyclin H": {"molecular_target": "CDK7/cyclin H (Homo sapiens, UniProt P50613)", "settings": "1 μM; Run 1, Run 2"}, "PKD2/PRKD2": {"molecular_target": "T1, PKD2/PRKD2 (Homo sapiens, UniProt Q9BZL6)", "T1 sequence (Q9BZL6 1-878)": "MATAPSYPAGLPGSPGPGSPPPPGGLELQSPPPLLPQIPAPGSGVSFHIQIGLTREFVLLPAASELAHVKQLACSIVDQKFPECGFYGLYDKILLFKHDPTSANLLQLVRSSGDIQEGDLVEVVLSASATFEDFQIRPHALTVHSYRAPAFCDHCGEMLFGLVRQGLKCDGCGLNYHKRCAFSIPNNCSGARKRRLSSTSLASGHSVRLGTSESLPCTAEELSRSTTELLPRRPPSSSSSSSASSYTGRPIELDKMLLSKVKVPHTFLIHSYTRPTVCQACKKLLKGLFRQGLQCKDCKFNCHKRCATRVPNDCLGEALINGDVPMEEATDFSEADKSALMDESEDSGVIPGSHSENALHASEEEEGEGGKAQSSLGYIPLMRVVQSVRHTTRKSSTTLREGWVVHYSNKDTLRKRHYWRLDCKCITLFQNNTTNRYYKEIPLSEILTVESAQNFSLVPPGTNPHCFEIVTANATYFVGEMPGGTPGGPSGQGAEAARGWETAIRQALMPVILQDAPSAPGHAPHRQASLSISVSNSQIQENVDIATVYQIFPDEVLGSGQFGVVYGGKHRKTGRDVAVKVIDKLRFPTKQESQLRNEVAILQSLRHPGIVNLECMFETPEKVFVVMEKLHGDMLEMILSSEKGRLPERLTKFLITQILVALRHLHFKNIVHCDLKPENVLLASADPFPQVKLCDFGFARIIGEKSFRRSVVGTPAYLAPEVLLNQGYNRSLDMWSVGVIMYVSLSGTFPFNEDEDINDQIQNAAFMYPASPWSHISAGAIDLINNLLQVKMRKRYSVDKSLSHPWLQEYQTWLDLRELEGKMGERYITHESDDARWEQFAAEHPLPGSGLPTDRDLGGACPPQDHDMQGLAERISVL", "settings": "1 μM; Run 1, Run 2"}, "ARK5/NUAK1": {"molecular_target": "T2, ARK5/NUAK1 (Homo sapiens, UniProt O60285)", "T2 sequence (O60285 1-661)": "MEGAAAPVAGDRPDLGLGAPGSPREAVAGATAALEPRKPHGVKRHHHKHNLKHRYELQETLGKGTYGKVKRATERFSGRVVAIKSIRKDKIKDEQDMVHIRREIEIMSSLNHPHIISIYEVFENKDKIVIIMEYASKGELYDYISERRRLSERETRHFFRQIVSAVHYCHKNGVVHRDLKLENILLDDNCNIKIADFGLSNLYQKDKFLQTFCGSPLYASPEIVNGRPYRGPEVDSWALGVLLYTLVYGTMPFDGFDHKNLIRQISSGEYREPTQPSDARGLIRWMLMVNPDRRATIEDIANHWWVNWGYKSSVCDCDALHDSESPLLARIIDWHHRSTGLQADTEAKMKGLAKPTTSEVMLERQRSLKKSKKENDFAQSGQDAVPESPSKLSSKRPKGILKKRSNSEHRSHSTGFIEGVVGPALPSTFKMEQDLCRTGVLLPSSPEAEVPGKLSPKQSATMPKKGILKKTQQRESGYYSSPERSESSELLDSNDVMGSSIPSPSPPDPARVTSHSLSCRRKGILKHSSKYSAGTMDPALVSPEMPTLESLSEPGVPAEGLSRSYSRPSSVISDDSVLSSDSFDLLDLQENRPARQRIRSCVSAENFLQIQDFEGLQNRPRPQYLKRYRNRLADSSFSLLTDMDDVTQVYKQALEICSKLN", "assay": "biochemical", "settings": "read-out: % enzyme activity, 1 μM; Run 1, Run 2"}, "CK1d": {"molecular_target": "CK1d (Homo sapiens, UniProt P48730)", "sequence (P48730 whole entry)": "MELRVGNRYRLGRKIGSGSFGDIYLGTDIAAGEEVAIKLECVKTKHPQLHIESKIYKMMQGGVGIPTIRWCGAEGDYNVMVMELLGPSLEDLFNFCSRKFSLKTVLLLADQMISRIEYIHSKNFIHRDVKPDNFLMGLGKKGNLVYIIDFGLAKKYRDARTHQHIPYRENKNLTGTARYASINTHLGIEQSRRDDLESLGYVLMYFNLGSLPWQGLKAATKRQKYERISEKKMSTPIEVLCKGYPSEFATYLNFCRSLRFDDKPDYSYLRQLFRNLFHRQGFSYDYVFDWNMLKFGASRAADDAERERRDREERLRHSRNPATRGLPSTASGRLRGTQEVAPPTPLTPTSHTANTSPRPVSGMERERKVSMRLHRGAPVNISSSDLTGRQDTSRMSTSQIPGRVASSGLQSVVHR", "assay": "biochemical", "settings": "read-out: % enzyme activity, 1 μM; Run 1, Run 2"}, "CK2a": {"molecular_target": "CK2a (Homo sapiens, UniProt P68400)", "sequence (P68400 whole entry)": "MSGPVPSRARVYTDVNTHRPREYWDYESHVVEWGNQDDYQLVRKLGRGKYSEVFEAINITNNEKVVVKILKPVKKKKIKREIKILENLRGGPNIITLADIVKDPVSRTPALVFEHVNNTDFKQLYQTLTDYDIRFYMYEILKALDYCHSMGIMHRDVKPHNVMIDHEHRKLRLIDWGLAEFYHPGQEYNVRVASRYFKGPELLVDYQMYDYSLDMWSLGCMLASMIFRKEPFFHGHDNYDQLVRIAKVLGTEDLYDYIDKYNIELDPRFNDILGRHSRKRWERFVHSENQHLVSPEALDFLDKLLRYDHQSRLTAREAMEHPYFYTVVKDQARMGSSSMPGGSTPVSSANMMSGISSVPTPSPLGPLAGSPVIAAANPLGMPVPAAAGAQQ", "assay": "biochemical", "settings": "read-out: % enzyme activity, 1 μM; Run 1, Run 2"}, "ERK5/MAPK7": {"molecular_target": "ERK5/MAPK7 (Homo sapiens, UniProt Q13164)", "sequence (Q13164 whole entry)": "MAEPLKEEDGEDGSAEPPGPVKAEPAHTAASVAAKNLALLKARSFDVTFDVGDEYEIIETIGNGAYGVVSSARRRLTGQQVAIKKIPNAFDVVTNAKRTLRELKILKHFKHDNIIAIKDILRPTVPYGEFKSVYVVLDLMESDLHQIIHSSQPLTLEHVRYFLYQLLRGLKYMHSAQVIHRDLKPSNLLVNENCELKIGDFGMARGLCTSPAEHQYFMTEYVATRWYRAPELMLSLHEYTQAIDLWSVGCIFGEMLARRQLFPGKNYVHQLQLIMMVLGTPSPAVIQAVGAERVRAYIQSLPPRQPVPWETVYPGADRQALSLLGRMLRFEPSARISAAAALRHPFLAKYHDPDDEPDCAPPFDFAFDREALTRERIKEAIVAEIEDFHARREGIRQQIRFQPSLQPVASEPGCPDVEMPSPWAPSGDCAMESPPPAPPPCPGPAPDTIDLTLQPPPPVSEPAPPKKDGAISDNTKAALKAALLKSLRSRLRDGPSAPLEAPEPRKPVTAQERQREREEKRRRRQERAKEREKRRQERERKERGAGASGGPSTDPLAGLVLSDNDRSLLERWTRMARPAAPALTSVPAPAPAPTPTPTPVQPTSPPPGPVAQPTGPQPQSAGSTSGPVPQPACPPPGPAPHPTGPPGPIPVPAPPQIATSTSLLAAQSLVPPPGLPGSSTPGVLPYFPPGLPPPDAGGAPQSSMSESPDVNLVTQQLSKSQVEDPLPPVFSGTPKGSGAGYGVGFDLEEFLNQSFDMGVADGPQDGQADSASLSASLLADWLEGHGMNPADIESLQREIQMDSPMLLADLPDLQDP", "assay": "biochemical", "settings": "read-out: % enzyme activity, 1 μM; Run 1, Run 2"}, "FYN": {"molecular_target": "FYN (Homo sapiens, UniProt P06241)", "assay": "biochemical", "settings": "read-out: % enzyme activity, 1 μM; Run 1, Run 2"}, "IRAK1": {"molecular_target": "IRAK1 (Homo sapiens, UniProt P51617)", "sequence (P51617 whole entry)": "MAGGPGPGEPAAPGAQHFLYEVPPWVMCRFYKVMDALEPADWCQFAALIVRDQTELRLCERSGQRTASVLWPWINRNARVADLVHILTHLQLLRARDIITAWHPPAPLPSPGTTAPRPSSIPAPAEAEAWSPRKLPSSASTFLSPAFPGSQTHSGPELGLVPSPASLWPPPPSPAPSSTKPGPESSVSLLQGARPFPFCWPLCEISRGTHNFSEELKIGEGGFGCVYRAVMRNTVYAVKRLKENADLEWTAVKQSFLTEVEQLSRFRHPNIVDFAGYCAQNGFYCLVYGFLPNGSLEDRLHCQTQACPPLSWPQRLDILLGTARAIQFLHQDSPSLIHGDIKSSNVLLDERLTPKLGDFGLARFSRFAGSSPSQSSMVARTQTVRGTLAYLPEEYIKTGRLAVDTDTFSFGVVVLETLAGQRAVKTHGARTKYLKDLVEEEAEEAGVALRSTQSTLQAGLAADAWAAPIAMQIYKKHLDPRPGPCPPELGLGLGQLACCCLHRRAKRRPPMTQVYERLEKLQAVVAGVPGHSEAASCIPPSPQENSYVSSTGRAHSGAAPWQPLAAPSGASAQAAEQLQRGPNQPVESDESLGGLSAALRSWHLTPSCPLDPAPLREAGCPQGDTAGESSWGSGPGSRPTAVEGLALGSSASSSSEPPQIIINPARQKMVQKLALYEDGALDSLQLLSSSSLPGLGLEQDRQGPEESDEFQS", "assay": "biochemical", "settings": "read-out: % enzyme activity, 1 μM; Run 1, Run 2"}, "MELK": {"molecular_target": "MELK (Homo sapiens, UniProt Q14680)", "sequence (Q14680 whole entry)": "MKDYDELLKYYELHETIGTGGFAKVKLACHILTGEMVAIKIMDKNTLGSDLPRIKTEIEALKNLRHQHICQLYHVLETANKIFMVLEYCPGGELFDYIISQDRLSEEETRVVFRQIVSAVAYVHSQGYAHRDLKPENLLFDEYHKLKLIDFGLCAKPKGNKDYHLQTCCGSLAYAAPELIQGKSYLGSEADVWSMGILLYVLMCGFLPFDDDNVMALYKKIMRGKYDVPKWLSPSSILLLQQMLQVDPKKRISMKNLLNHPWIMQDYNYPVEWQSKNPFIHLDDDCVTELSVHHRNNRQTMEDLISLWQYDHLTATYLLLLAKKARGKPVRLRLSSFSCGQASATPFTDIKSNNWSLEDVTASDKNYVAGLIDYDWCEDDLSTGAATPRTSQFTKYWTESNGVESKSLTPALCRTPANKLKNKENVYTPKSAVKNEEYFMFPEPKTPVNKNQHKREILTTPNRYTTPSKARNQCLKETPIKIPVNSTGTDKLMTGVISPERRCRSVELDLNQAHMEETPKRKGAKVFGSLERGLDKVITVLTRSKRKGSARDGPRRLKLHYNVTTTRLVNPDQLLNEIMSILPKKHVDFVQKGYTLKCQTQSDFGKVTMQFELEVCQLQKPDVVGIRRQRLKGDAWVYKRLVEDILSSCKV", "assay": "biochemical", "settings": "read-out: % enzyme activity, 1 μM; Run 1, Run 2"}, "MLK1/MAP3K9": {"molecular_target": "MLK1/MAP3K9 (Homo sapiens, UniProt P80192)", "sequence (P80192 whole entry)": "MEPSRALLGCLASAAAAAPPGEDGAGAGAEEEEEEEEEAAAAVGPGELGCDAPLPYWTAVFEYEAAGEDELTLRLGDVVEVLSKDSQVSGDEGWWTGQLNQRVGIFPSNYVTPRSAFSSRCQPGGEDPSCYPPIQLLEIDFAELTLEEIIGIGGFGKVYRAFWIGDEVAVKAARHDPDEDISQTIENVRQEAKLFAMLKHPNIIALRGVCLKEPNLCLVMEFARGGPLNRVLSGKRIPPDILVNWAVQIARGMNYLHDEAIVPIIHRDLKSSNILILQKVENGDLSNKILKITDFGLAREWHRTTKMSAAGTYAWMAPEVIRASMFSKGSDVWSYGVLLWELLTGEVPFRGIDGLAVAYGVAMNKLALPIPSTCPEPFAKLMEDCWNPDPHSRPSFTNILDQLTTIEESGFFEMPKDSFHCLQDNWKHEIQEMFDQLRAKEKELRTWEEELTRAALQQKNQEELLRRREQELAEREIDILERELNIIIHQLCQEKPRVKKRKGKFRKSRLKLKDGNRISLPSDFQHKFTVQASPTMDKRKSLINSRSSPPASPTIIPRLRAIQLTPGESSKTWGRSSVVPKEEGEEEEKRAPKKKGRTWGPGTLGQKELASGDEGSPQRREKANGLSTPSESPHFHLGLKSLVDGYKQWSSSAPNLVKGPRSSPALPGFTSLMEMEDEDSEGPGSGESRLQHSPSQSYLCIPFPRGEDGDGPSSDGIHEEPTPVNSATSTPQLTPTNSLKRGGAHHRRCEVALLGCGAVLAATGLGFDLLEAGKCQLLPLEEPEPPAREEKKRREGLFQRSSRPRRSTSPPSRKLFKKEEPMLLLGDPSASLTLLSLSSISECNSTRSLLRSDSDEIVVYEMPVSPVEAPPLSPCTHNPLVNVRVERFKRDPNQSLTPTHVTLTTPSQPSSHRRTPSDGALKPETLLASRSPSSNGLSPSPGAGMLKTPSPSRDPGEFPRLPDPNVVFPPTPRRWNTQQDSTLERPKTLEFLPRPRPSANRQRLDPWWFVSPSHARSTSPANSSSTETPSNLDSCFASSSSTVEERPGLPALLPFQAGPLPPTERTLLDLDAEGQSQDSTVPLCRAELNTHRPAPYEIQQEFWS", "assay": "biochemical", "settings": "read-out: % enzyme activity, 1 μM; Run 1, Run 2"}, "PKCd": {"molecular_target": "PKCd (Homo sapiens, UniProt Q05655)", "assay": "biochemical", "settings": "read-out: % enzyme activity, 1 μM; Run 1, Run 2"}, "PKCepsilon": {"molecular_target": "T3, PKCepsilon (Homo sapiens, UniProt Q02156)", "T3 sequence (Q02156 1-737)": "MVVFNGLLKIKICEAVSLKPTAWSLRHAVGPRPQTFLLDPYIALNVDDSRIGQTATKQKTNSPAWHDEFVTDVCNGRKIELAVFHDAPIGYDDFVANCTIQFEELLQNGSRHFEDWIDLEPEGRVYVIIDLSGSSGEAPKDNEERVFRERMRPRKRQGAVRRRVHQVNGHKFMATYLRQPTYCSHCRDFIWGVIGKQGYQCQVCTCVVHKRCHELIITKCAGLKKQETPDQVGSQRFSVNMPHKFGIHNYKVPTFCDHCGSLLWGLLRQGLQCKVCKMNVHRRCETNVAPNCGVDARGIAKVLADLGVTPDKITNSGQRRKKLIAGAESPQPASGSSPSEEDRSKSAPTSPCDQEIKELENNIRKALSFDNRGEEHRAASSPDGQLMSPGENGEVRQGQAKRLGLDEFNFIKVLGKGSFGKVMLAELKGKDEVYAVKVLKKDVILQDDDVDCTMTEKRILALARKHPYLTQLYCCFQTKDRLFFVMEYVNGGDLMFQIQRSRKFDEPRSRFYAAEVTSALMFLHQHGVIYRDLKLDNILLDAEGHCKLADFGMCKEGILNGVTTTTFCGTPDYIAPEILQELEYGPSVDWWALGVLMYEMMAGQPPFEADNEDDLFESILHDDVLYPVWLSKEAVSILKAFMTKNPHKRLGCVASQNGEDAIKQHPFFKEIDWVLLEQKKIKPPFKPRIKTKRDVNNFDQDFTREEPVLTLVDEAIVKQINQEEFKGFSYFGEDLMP", "assay": "biochemical", "settings": "read-out: % enzyme activity, 1 μM; Run 1, Run 2"}}, "note": "“And” between values parts separate entries of the source, which are not always exact repeats. Equal values may be shown once."}
{"smiles": "COc1cc(-c2cncc(-c3ccc(N4C[C@@H](C)N(C)[C@@H](C)C4)cc3)c2C)cc(F)c1C(N)=O", "note": "[Compound 26c, 2-Fluoro-6-methoxy-4-(4-methyl-5-(4-((3R,5S)-3,4,5-trimethylpiperazin-1-yl)phenyl)pyridin-3-yl)benzamide]", "values": [{"measurement": "% enzyme activity at 1 μM", "setting": "TNIK", "result": "4.85% and 3.92%"}, {"measurement": "% enzyme activity", "setting": "CDK19/cyclin C", "result": 85.09, "unit": "%"}, {"measurement": "% enzyme activity", "setting": "CDK7/cyclin H", "result": 95.50, "unit": "%"}, {"measurement": "% enzyme activity", "setting": "PKD2/PRKD2", "result": 98.89, "unit": "%"}, {"measurement": "remaining activity at 1 µM", "setting": "ARK5/NUAK1", "result": 96, "unit": "%"}, {"measurement": "remaining activity at 1 µM", "setting": "CK1d", "result": 108, "unit": "%"}, {"measurement": "remaining activity at 1 µM", "setting": "CK2a", "result": 87.2, "unit": "%"}, {"measurement": "remaining activity at 1 µM", "setting": "ERK5/MAPK7", "result": 101, "unit": "%"}, {"measurement": "remaining activity at 1 µM", "setting": "FYN", "result": 97, "unit": "%"}, {"measurement": "remaining activity at 1 µM", "setting": "IRAK1", "result": 98.9, "unit": "%"}, {"measurement": "remaining activity at 1 µM", "setting": "MELK", "result": 99.4, "unit": "%"}, {"measurement": "remaining activity at 1 µM", "setting": "MLK1/MAP3K9", "result": 99.8, "unit": "%"}, {"measurement": "remaining activity at 1 µM", "setting": "PKCd", "result": 101, "unit": "%"}, {"measurement": "remaining activity at 1 µM", "setting": "PKCepsilon", "result": 106, "unit": "%"}]}
{"smiles": "COc1cc(-c2cncc(-c3ccc(N4CCN(C)CC4)cc3)c2C)cc(F)c1C(N)=O", "note": "[Compound 26a, 2-Fluoro-6-methoxy-4-(4-methyl-5-(4-(4-methylpiperazin-1-yl)phenyl)pyridin-3-yl)benzamide]", "values": [{"measurement": "% enzyme activity at 1 μM", "setting": "TNIK", "result": "-0.77% and -2.62%"}, {"measurement": "% enzyme activity", "setting": "CDK19/cyclin C", "result": 77.81, "unit": "%"}, {"measurement": "% enzyme activity", "setting": "CDK7/cyclin H", "result": 93.27, "unit": "%"}, {"measurement": "% enzyme activity", "setting": "PKD2/PRKD2", "result": 95.72, "unit": "%"}, {"measurement": "remaining activity at 1 µM", "setting": "ARK5/NUAK1", "result": 97.6, "unit": "%"}, {"measurement": "remaining activity at 1 µM", "setting": "CK1d", "result": 98.1, "unit": "%"}, {"measurement": "remaining activity at 1 µM", "setting": "CK2a", "result": 92.5, "unit": "%"}, {"measurement": "remaining activity at 1 µM", "setting": "ERK5/MAPK7", "result": 96.5, "unit": "%"}, {"measurement": "remaining activity at 1 µM", "setting": "FYN", "result": 99.9, "unit": "%"}, {"measurement": "remaining activity at 1 µM", "setting": "IRAK1", "result": 103, "unit": "%"}, {"measurement": "remaining activity at 1 µM", "setting": "MELK", "result": 99.2, "unit": "%"}, {"measurement": "remaining activity at 1 µM", "setting": "MLK1/MAP3K9", "result": 112, "unit": "%"}, {"measurement": "remaining activity at 1 µM", "setting": "PKCd", "result": 99, "unit": "%"}, {"measurement": "remaining activity at 1 µM", "setting": "PKCepsilon", "result": 99.8, "unit": "%"}]}
